The results in this text go back to PubChem BioAssay (NCI).

Among the test systems are CCRF-CEM leukemia; HCT-116 colon; HOP-92 NSCLC; MALME-3M melanoma; NCI-H522 lung; OVCAR-3 ovarian; OVCAR-5 ovarian; SF-539 CNS; SN12C renal; SR leukemia.
Experiment in all cases: growth of human tumour cells (NCI), 48 h

The structures appear in SMILES notation.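 The compound was tested at five concentrations on cells cultured in 96-well plates, with a 48-hour exposure period. GI50: concentration for 50% inhibition of growth. TGI marks complete inhibition of growth.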

`C=C1C(=O)O[C@H]2[C@H]1CC/C(COC(=O)C(=O)c1cn(Cc3ccccc3)c3ccccc13)=C\CC[C@@]1(C)O[C@@H]21`: the GI50 in the test with CCRF-CEM leukemia was 1.27 µM; with HCT-116 colon, 1.62 µM; with HOP-92 NSCLC it was 1.88 µM; in the test on MALME-3M melanoma it was 2.08 µM; with NCI-H522 lung, 1.63 µM; with OVCAR-3 ovarian, 2.18 µM. Besides, the GI50 in the test with OVCAR-5 ovarian was 2.56 µM; in the test with SF-539 CNS it was 1.9 µM; with SN12C renal it was 2.3 µM; in the test on SR leukemia, 1 µM. The TGI in the test on CCRF-CEM leukemia was 9.02 µM; with HCT-116 colon, 3.36 µM; in the test with HOP-92 NSCLC, 4.38 µM; in the test with MALME-3M melanoma it was 4.39 µM; in the test with NCI-H522 lung, 3.42 µM; with OVCAR-3 ovarian, 5.65 µM. Also, the TGI with OVCAR-5 ovarian is 6.82 µM; with SF-539 CNS, 3.83 µM; with SN12C renal it was 6.03 µM; in the test with SR leukemia, above 100 µM.

Turning to `CN1C(=O)c2cccc3cc([N+](=O)[O-])cc(c23)C1=O`, the TGI in the test on CCRF-CEM leukemia, in the test with HCT-116 colon, with HOP-92 NSCLC, with MALME-3M melanoma, in the test on NCI-H522 lung and in the test on OVCAR-3 ovarian was above 10 µM in each case. Besides, the TGI in the test on OVCAR-5 ovarian, in the test on SF-539 CNS, in the test with SN12C renal and in the test on SR leukemia was above 10 µM in each case.

Take `CC(C)(C)c1cc(C(C)(C)C)cc(S(=O)(=O)Nc2cc3ccccc3cc2C(=O)NCCN)c1`: the GI50 is 2.55 µM in the test on CCRF-CEM leukemia; 1.75 µM in the test on HCT-116 colon; 1.73 µM with HOP-92 NSCLC; 1.54 µM with MALME-3M melanoma; 1.8 µM in the test with NCI-H522 lung; 1.75 µM in the test with OVCAR-3 ovarian. The GI50 with OVCAR-5 ovarian is 1.94 µM; in the test on SF-539 CNS, 1.77 µM; in the test on SN12C renal it was 1.86 µM; in the test on SR leukemia, 1.9 µM. Further, the TGI with CCRF-CEM leukemia worked out at 6.41 µM; in the test on HCT-116 colon it was 3.22 µM; with HOP-92 NSCLC, 3.24 µM; with MALME-3M melanoma, 3.13 µM; in the test on NCI-H522 lung, 3.72 µM; with OVCAR-3 ovarian, 3.21 µM. The TGI in the test with OVCAR-5 ovarian came out at 4.49 µM; in the test on SF-539 CNS it was 3.28 µM; with SN12C renal it was 3.6 µM; with SR leukemia, 4.43 µM.

As to `CC(=O)[O-].CCN(CC)c1ccc(C=NCCN=Cc2ccc(N(CC)CC)cc2[O-])c([O-])c1.[Mn+3]`, the GI50 with CCRF-CEM leukemia was 42 µM; with HCT-116 colon, 18.5 µM; in the test on HOP-92 NSCLC, 38.3 µM; in the test on MALME-3M melanoma, 18.4 µM; in the test on NCI-H522 lung, 43.3 µM; in the test with OVCAR-3 ovarian, 21 µM. Also, the GI50 in the test with OVCAR-5 ovarian was 21.3 µM; with SF-539 CNS, 20.9 µM; with SN12C renal, 20.9 µM; in the test on SR leukemia, 22.3 µM. Moreover, the TGI in the test with CCRF-CEM leukemia is above 100 µM; with HCT-116 colon, 33.3 µM; in the test on HOP-92 NSCLC it was 93.9 µM; in the test with MALME-3M melanoma it was 35.2 µM; with NCI-H522 lung, 61.9 µM; in the test on OVCAR-3 ovarian, 44.1 µM. Moreover, the TGI with OVCAR-5 ovarian is 41 µM; in the test with SF-539 CNS, 37.4 µM; in the test with SN12C renal, 48.8 µM; in the test on SR leukemia it was 67.4 µM.

Regarding `CCCCC(O)(c1ccc(Cl)cc1)C(CN1CCOCC1)c1ccc(Cl)cc1` (stereo not given), the GI50 in the test on CCRF-CEM leukemia is 14.3 µM; in the test with HCT-116 colon it was 5.23 µM; in the test with HOP-92 NSCLC, 10.6 µM; with MALME-3M melanoma, 15.6 µM; in the test with NCI-H522 lung it was 7.26 µM; in the test with OVCAR-3 ovarian, 14.5 µM. Besides, the GI50 was 10.7 µM with OVCAR-5 ovarian, 17 µM with SF-539 CNS, 12.6 µM in the test with SN12C renal and 12.5 µM in the test with SR leukemia. Further, the TGI in the test on CCRF-CEM leukemia was found to be 36.2 µM; in the test on HCT-116 colon, 20.3 µM; in the test with HOP-92 NSCLC, 23.6 µM; with MALME-3M melanoma it was 33.8 µM; in the test with NCI-H522 lung it was 21.7 µM; in the test on OVCAR-3 ovarian, 28 µM. Besides, the TGI was 23.7 µM in the test on OVCAR-5 ovarian, 36.6 µM in the test with SF-539 CNS, 28.5 µM in the test on SN12C renal and 32.3 µM in the test on SR leukemia.

Turning to `OC[C@H]1CCCC1O` (stereo not given in full), the TGI with CCRF-CEM leukemia, in the test on HCT-116 colon, with HOP-92 NSCLC, with MALME-3M melanoma, with NCI-H522 lung and with OVCAR-3 ovarian was above 100 µM throughout. For the same compound, the TGI in the test with OVCAR-5 ovarian, with SF-539 CNS, in the test on SN12C renal and with SR leukemia was above 100 µM each time.

On to `NC(N)=N/N=C(\c1nc2ccc([N+](=O)[O-])cc2[nH]c1=O)C(O)c1ccc([N+](=O)[O-])cc1` (stereo not given), for which the TGI was above 100 µM in the test on CCRF-CEM leukemia; above 100 µM in the test on HCT-116 colon; above 100 µM in the test on HOP-92 NSCLC; above 100 µM in the test on MALME-3M melanoma; 89.6 µM in the test with NCI-H522 lung; above 100 µM in the test on OVCAR-3 ovarian. Further, the TGI with OVCAR-5 ovarian, in the test with SF-539 CNS, in the test on SN12C renal and in the test with SR leukemia was above 100 µM in each case.

`O=C(O)C1OC(n2cc(F)c(=O)[nH]c2=O)CC1O` (stereo not given): the TGI with CCRF-CEM leukemia was above 100 µM; in the test with HCT-116 colon, above 100 µM; in the test with HOP-92 NSCLC, above 51.4 µM; in the test with MALME-3M melanoma it was above 100 µM; with NCI-H522 lung, above 100 µM; in the test on OVCAR-3 ovarian, above 100 µM. The TGI in the test with OVCAR-5 ovarian is above 100 µM; in the test on SF-539 CNS, 26.2 µM; in the test on SN12C renal it was above 100 µM; in the test on SR leukemia it was above 100 µM.
